Results from PubChem BioAssay AID256 (DTP/NCI, 2004).
Where “and” joins values, the source holds several entries; their conditions need not be identical. Equal entries are not always repeated. Toxic doses and inconclusive results are not listed.

System: CD2F1 mice, L1210 leukemia ip, survival T/C
Assay: NCI In Vivo Anticancer Drug Screen. Data for tumor model L1210 Leukemia (intraperitoneal) in CD2F1 (CDF1) mice
Details: higher = longer survival
In short: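 Tumor-bearing mice (transplanted tumor) were split into treated and vehicle control groups, and the measured endpoint of each treated group was divided by that of its vehicle controls.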

[1] = endpoint: mean survival time, dose: 100.0 mg/kg/injection, schedule: Q04DX003 (ip), vehicle: saline
[2] = endpoint: mean survival time, dose: 200.0 mg/kg/injection, schedule: Q04DX003 (ip), vehicle: saline
[3] = endpoint: mean survival time, dose: 400.0 mg/kg/injection, schedule: Q04DX003 (ip), vehicle: saline
[4] = endpoint: mean survival time, dose: 100.0 mg/kg/injection, schedule: Q04DX002 (ip), vehicle: saline with Tween-80
[5] = endpoint: mean survival time, dose: 200.0 mg/kg/injection, schedule: Q04DX002 (ip), vehicle: saline with Tween-80

C=CCNC(=O)NCC=C
T/C (endpoint: mean survival time, dose: 3.13 mg/kg/injection, schedule: Q01DX009 (ip), vehicle: saline): 102 % of control and 110 % of control (2×)
T/C (endpoint: mean survival time, dose: 12.5 mg/kg/injection, schedule: Q01DX005 (ip), vehicle: saline): 102 % of control
T/C (endpoint: mean survival time, dose: 12.5 mg/kg/injection, schedule: Q02DX005 (ip), vehicle: saline): 97 % of control
T/C (endpoint: mean survival time, dose: 12.5 mg/kg/injection, schedule: Q04DX003 (ip), vehicle: saline): 100 % of control
T/C (endpoint: mean survival time, dose: 25.0 mg/kg/injection, schedule: Q01DX005 (ip), vehicle: saline): 105 % of control
T/C (endpoint: mean survival time, dose: 25.0 mg/kg/injection, schedule: Q02DX005 (ip), vehicle: saline): 100 % of control
T/C (endpoint: mean survival time, dose: 25.0 mg/kg/injection, schedule: Q04DX003 (ip), vehicle: saline): 102 % of control
T/C (endpoint: mean survival time, dose: 50.0 mg/kg/injection, schedule: Q01DX005 (ip), vehicle: saline): 103 % of control
T/C (endpoint: mean survival time, dose: 50.0 mg/kg/injection, schedule: Q02DX005 (ip), vehicle: saline): 103 % of control
T/C (endpoint: mean survival time, dose: 50.0 mg/kg/injection, schedule: Q04DX003 (ip), vehicle: saline): 103 % of control
T/C (endpoint: mean survival time, dose: 100.0 mg/kg/injection, schedule: Q01DX005 (ip), vehicle: saline): 109 % of control
T/C (endpoint: mean survival time, dose: 100.0 mg/kg/injection, schedule: Q01DX006 (ip), vehicle: saline): 154 % of control
T/C (endpoint: mean survival time, dose: 100.0 mg/kg/injection, schedule: Q02DX005 (ip), vehicle: saline): 105 % of control
T/C (endpoint: mean survival time, dose: 100.0 mg/kg/injection, schedule: Q03DX003 (ip), vehicle: saline): 120 % of control
T/C [1]: 115 % of control and 109 % of control
T/C (endpoint: mean survival time, dose: 200.0 mg/kg/injection, schedule: Q01DX006 (ip), vehicle: saline): 168 % of control
T/C (endpoint: mean survival time, dose: 200.0 mg/kg/injection, schedule: Q02DX005 (ip), vehicle: saline): 109 % of control
T/C [2]: 115 % of control and 120 % of control
T/C (endpoint: mean survival time, dose: 400.0 mg/kg/injection, schedule: Q02DX005 (ip), vehicle: saline): 115 % of control
T/C [3]: 97 % of control

CCCCCC(=O)C(C)C(C)C (stereo unspecified)
T/C (endpoint: mean survival time, dose: 50.0 mg/kg/injection, schedule: Q01DX009 (ip), vehicle: saline with Tween-80): 97 % of control
T/C (endpoint: mean survival time, dose: 100.0 mg/kg/injection, schedule: Q01DX009 (ip), vehicle: saline with Tween-80): 97 % of control
T/C (endpoint: mean survival time, dose: 200.0 mg/kg/injection, schedule: Q01DX009 (ip), vehicle: saline with Tween-80): 97 % of control

CCCCCCNC(=O)Oc1c(C/C=C/CCC(=O)O)c(OC)c(C)c2c1C(=O)OC2
T/C [4]: 108 % of control
T/C [5]: 112 % of control

OCC1OC(n2ccc3c(NO)ncnc32)C(O)C1O (stereo unspecified)
T/C (endpoint: mean survival time, dose: 5.0 mg/kg/injection, schedule: Q01DX001 (ip), vehicle: saline): 111 % of control
T/C (endpoint: mean survival time, dose: 10.0 mg/kg/injection, schedule: Q01DX001 (ip), vehicle: saline): 118 % of control

c1ccc(-c2nnnn2-c2ccccc2)cc1
T/C [1]: 101 % of control
T/C [2]: 98 % of control
T/C [3]: 104 % of control

O=C1N[C@H]2[C@H](CS[C@H]2CCCCC(=O)N(CCP(c2ccccc2)c2ccccc2)CCP(c2ccccc2)c2ccccc2)N1
T/C (endpoint: median survival time, dose: 25.0 mg/kg/injection, schedule: Q01DX009 (ip), vehicle: Klucel (hydroxypropylcellulose) (HPC)): 100 % of control and 107 % of control
T/C (endpoint: median survival time, dose: 50.0 mg/kg/injection, schedule: Q01DX009 (ip), vehicle: Klucel (hydroxypropylcellulose) (HPC)): 98 % of control and 107 % of control
T/C (endpoint: median survival time, dose: 100.0 mg/kg/injection, schedule: Q01DX009 (ip), vehicle: Klucel (hydroxypropylcellulose) (HPC)): 103 % of control and 109 % of control
T/C (endpoint: median survival time, dose: 200.0 mg/kg/injection, schedule: Q01DX009 (ip), vehicle: Klucel (hydroxypropylcellulose) (HPC)): 97 % of control and 110 % of control
T/C (endpoint: median survival time, dose: 400.0 mg/kg/injection, schedule: Q01DX009 (ip), vehicle: Klucel (hydroxypropylcellulose) (HPC)): 90 % of control and 108 % of control

c1ccc2c3c(ccc2c1)OCCOCCOCCOCCOc1ccc2ccccc2c1-3
T/C (endpoint: mean survival time, dose: 100.0 mg/kg/injection, schedule: Q01DX001 (ip), vehicle: saline with Tween-80): 91 % of control
T/C (endpoint: mean survival time, dose: 200.0 mg/kg/injection, schedule: Q01DX001 (ip), vehicle: saline with Tween-80): 100 % of control
T/C (endpoint: mean survival time, dose: 400.0 mg/kg/injection, schedule: Q01DX001 (ip), vehicle: saline with Tween-80): 100 % of control

CNC(=O)OCC(COc1cc(C)ccc1C(C)C)OC(=O)NC (stereo unspecified)
T/C [4]: 86 % of control
T/C [5]: 93 % of control
T/C (endpoint: mean survival time, dose: 400.0 mg/kg/injection, schedule: Q04DX002 (ip), vehicle: saline with Tween-80): 89 % of control

O=c1nc(NC2CC2)ccn1C1OC(CO)C(O)C1O (stereo unspecified)
T/C (endpoint: median survival time, dose: 12.5 mg/kg/injection, schedule: Q01DX005 (ip), vehicle: water): 97 % of control
T/C (endpoint: median survival time, dose: 25.0 mg/kg/injection, schedule: Q01DX005 (ip), vehicle: water): 106 % of control
T/C (endpoint: median survival time, dose: 50.0 mg/kg/injection, schedule: Q01DX005 (ip), vehicle: water): 107 % of control
T/C (endpoint: median survival time, dose: 100.0 mg/kg/injection, schedule: Q01DX005 (ip), vehicle: water): 107 % of control
T/C (endpoint: median survival time, dose: 200.0 mg/kg/injection, schedule: Q01DX005 (ip), vehicle: water): 101 % of control
